Assay type in all cases: ADME
Common to all, as to set-up: dose 2 uM
What all share (details): 2 µM

Series [1] has as its target T1, Acyltransferase (Bacteroides thetaiotaomicron, UniProt Q8A575).
T1 sequence (Q8A575 whole entry): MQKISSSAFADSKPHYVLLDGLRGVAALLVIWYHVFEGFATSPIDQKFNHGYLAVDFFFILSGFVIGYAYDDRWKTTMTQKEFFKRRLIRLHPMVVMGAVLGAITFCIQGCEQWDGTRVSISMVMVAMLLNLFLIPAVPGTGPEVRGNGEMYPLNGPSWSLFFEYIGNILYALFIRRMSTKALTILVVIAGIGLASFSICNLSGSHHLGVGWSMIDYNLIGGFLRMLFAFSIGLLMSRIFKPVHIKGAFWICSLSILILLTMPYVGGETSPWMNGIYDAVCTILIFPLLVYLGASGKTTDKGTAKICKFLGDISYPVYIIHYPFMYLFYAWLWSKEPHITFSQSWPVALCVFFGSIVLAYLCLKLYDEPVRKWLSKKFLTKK
Description: (§1) The drug is tested on Bacteroides thetaiotaomicron strain: VPI-5482 for biotransformation. The drug concentrations were measured before and after a 12-h incubation by liquid-chromatography-coupled mass spectrometry (LC–MS).

Series [2] has as its target T2, Xylanase (Bacteroides thetaiotaomicron, UniProt Q8A8H5).
T2 sequence (Q8A8H5 whole entry): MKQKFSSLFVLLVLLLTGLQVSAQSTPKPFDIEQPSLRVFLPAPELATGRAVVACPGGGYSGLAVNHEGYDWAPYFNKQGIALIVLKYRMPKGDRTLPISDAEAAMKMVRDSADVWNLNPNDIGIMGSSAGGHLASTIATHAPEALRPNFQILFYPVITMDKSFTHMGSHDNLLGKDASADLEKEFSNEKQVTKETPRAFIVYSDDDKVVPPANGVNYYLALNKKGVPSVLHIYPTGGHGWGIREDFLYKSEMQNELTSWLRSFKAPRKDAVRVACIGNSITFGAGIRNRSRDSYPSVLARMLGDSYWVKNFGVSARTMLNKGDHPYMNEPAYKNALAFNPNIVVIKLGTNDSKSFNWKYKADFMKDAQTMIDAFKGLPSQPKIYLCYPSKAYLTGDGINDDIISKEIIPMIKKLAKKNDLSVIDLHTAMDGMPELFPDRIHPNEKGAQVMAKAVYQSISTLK
Described as §1.

The target in series [3] is T3, Acylhydrolase (Bacteroides thetaiotaomicron, UniProt Q8AA96).
T3 sequence (Q8AA96 whole entry): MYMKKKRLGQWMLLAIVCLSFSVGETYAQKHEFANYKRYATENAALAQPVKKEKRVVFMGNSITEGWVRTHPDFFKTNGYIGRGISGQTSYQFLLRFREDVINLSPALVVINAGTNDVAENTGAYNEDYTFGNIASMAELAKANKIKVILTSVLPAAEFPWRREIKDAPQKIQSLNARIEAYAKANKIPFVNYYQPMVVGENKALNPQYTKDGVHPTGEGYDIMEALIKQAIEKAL
Described as §1.

The target in series [4] is T4, Nitroreductase-like protein (Bacteroides thetaiotaomicron, UniProt Q8AB93).
T4 sequence (Q8AB93 whole entry): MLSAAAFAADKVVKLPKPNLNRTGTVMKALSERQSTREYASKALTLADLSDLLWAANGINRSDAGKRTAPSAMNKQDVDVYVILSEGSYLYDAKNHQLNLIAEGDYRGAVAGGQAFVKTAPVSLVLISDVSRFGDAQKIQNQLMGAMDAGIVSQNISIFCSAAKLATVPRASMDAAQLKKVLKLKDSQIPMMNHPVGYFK
Described as §1.

In series [5] the target is T5, Sialic acid-specific 9-O-acetylesterase (Bacteroides thetaiotaomicron, UniProt Q8A0D0).
T5 sequence (Q8A0D0 whole entry): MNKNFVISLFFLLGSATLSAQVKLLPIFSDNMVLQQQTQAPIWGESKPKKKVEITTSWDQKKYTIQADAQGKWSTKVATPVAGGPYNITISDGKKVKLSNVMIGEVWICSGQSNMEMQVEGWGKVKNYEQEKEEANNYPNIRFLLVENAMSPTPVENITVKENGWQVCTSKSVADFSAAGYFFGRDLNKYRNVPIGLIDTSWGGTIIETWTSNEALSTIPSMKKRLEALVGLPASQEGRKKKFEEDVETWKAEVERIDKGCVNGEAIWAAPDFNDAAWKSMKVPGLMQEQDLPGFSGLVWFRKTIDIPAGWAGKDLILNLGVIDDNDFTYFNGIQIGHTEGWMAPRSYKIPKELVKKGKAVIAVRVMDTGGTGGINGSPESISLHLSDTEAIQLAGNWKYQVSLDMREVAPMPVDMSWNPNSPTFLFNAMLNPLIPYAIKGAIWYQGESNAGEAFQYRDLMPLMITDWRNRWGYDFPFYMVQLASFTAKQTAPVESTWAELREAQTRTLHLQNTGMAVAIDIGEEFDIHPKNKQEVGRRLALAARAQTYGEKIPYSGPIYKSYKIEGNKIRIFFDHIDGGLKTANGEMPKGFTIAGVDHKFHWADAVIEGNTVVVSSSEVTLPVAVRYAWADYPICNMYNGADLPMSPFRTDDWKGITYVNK
The series is described as §1.

For series [6], the target named is T6, 3-oxo-5-alpha-steroid 4-dehydrogenase (Bacteroides thetaiotaomicron, UniProt Q8A618).
T6 sequence (Q8A618 whole entry): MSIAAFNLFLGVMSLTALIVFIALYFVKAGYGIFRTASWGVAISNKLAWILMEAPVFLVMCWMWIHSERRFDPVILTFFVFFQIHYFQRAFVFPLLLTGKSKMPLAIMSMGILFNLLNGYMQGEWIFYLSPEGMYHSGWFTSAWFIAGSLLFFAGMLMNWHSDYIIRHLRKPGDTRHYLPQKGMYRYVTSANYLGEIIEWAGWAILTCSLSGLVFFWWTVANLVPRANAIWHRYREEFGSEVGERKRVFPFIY
Described as §1.

Series [7] concerns the target General stress protein (Bacteroides thetaiotaomicron, UniProt Q8A7U5). The series is described as §1.
Series [8] addresses T7, Lipoprotein (Bacteroides thetaiotaomicron, UniProt Q8A343).
T7 sequence (Q8A343 whole entry): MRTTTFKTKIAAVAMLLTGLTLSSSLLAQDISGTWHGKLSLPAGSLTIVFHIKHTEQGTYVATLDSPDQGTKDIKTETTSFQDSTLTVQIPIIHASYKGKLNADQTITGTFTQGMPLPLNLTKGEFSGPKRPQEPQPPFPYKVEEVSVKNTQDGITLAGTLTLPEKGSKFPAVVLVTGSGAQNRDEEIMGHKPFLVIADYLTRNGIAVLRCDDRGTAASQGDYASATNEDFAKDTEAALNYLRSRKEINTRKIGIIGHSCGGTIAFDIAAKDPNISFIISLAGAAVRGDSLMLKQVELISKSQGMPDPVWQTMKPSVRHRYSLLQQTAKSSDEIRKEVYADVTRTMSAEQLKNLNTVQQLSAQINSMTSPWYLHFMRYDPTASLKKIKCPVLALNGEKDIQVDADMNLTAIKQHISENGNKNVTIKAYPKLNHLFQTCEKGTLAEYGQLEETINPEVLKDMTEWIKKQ
The series is described as §1.

Sequence of General stress protein (Q8A7U5 1-138, change not shown): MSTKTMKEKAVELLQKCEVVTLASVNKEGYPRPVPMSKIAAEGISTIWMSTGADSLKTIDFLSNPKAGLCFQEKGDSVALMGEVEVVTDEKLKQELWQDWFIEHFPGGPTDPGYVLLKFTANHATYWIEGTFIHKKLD

On to `C#C[C@]1(O)CC[C@H]2[C@@H]3CCC4=Cc5oncc5C[C@]4(C)[C@H]3CC[C@@]21C` [DANAZOL], for which the “Bacterial Biotransformation” value in series [1] is given as “Compound NOT metabolized”; in series [2] it was “Compound NOT metabolized”; in series [3], “Compound metabolized”; in series [4], “Compound NOT metabolized”; in series [5], “Compound NOT metabolized”; in series [6], “Compound NOT metabolized”. The “Bacterial Biotransformation” value in series [7] and in series [8] was “Compound NOT metabolized” in each case.

As to `COc1ccnc(C[S+]([O-])c2nc3ccc(OC(F)F)cc3[nH]2)c1OC` (stereo not drawn) [PANTOPRAZOLE], the “Bacterial Biotransformation” value in series [1], in series [2], in series [3], in series [4], in series [5] and in series [6] was “Compound NOT metabolized” throughout. The “Bacterial Biotransformation” value in series [7] and in series [8] was “Compound NOT metabolized” in each case.

In the case of `CCN(CC)C(=O)/C(C#N)=C/c1cc(O)c(O)c([N+](=O)[O-])c1` [ENTACAPONE], the “Bacterial Biotransformation” value is listed as “Compound NOT metabolized” in series [1]; “Compound NOT metabolized” in series [2]; “Compound NOT metabolized” in series [3]; “Compound metabolized” in series [4]; “Compound NOT metabolized” in series [5]; “Compound NOT metabolized” in series [6]. In addition, the “Bacterial Biotransformation” value in series [7] and in series [8] was “Compound NOT metabolized” in each case.

`CC(=O)SCC(Cc1ccccc1)C(=O)NCC(=O)OCc1ccccc1` (stereo not drawn) [RACECADOTRIL]: the “Bacterial Biotransformation” value in series [1] is “Compound NOT metabolized”; in series [2], “Compound metabolized”; in series [3], “Compound metabolized”; in series [4], “Compound NOT metabolized”; in series [5], “Compound metabolized”; in series [6] it was “Compound NOT metabolized”. The “Bacterial Biotransformation” value in series [7] was “Compound NOT metabolized”; in series [8] it was “Compound metabolized”.

With `CC(=O)Nc1ccc(OC(C)=O)cc1` [DIACETAMATE], the “Bacterial Biotransformation” value was “Compound NOT metabolized” in series [1]; “Compound metabolized” in series [2]; “Compound metabolized” in series [3]; “Compound NOT metabolized” in series [4]; “Compound metabolized” in series [5]; “Compound NOT metabolized” in series [6]. The “Bacterial Biotransformation” value in series [7] and in series [8] was “Compound NOT metabolized” throughout.

Take `CC(=O)OCC(=O)[C@@]12N=C(C)O[C@@H]1C[C@H]1[C@@H]3CCC4=CC(=O)C=C[C@]4(C)[C@H]3[C@@H](O)C[C@@]12C` [DEFLAZACORT]: the “Bacterial Biotransformation” value in series [1] was “Compound NOT metabolized”; in series [2], “Compound NOT metabolized”; in series [3], “Compound metabolized”; in series [4] it was “Compound NOT metabolized”; in series [5], “Compound NOT metabolized”; in series [6] it was “Compound NOT metabolized”. Also, the “Bacterial Biotransformation” value in series [7] and in series [8] was “Compound NOT metabolized” throughout.

The values above are taken from ChEMBL document CHEMBL5303573, “Mapping human microbiome drug metabolism by gut bacteria and their genes” (Nature, 2019).
